Results: patent US8906888B2, “Low-calcemic 16,23-diene 25-oxime analogs of 1α,25-dihydroxy vitamin D3” (Cytochroma Inc., priority 2005, dated 2014)

Key:
[1] = target: T1, DBP (vitamin D binding protein) (Homo sapiens, UniProt P02774); assay: DBP binding assay (human plasma, [3H]-25(OH)D3 displacement); conditions: human plasma diluted 1:5000; read-out: B50 (DBP binding, displacement of 50 percent [3H]-25(OH)D3)
T1 construct: Human plasma diluted to 1:5000 with Tris buffer/gelatin solution; from tissue; host or cells: human plasma
T1 sequence (P02774 17-474): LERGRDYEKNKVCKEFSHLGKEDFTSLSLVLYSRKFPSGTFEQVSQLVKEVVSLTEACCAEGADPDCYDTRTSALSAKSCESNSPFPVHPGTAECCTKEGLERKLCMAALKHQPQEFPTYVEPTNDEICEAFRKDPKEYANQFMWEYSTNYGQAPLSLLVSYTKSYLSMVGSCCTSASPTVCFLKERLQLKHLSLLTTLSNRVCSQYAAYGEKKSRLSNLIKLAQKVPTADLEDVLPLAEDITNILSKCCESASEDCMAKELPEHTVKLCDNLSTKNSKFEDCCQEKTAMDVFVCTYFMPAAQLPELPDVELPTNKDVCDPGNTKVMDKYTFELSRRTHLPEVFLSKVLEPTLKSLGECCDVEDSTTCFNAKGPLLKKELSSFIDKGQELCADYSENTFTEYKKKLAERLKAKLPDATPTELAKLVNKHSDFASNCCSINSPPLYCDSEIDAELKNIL
Procedure: 1. Tris buffer: • 22.50 g Tris-HCI • 500 ml H2O
5. DBP (vitamin D binding protein) (human plasma)
2. Dextran Coated Charcoal Solution • (1) preparation of charcoal solution • Norit decolorizing neutral charcoal 2.0 g • Tris buffer 150 mL • Stirring • (2) preparation of dextran solution • Dextran T—70 0.2 g • Tris buffer 50 ml • (3) preparation of dextran coated charcoal solution • Slowly dripped the dextran solution into charcoal solution with stirring. • Kept refrigerated overnight. • Thirty minute before use, kept it on ice with continuous mixing. • This solution can be kept in 4° C. for 2 month.
4. DBP Solution • Human plasma diluted to 1:5000 with Tris buffer/gelatin solution
8. [^3H-26,27]-[…] Solution • Stock solution diluted in Tris buffer, 20,000 CPM/50 μl. (C) Assay
(D) Calculation: • The amount of 25(OH)D3 to displace 50 percent [3H]-25(OH)D3 was calculated as B50 for 25(OH)D3 DBP binding. The DBP binding of other compounds was calculated as B50 relative to a value of 1 for 25(OH)D3.

VDR = target: T2, VDR (Homo sapiens, UniProt P11473); assay: VDR binding assay ([3H]-1,25(OH)2D3 displacement); conditions: human recombinant VDR; read-out: B50 (VDR binding, displacement of 50 percent [3H]-1,25(OH)2D3)
T2 construct: purchased Biomol
T2 sequence (P11473 1-427): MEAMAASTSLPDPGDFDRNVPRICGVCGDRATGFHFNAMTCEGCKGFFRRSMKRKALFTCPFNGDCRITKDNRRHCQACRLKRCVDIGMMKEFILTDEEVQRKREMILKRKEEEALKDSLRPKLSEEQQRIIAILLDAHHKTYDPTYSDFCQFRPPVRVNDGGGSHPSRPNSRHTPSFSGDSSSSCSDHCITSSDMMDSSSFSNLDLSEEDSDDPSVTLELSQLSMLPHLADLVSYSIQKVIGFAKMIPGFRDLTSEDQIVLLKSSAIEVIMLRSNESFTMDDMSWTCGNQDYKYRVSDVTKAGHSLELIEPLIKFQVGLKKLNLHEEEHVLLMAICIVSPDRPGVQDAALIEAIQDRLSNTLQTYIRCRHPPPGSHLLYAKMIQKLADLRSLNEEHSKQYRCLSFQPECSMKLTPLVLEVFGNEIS
Procedure: • 1. VDR 9.4 μmol/μl (human, recombinant, Biomol). • 2. [^3H]-1,25(OH)2D3 in ethanol • 3. 1,25(OH)2D3 in ethanol • 4. TEK300 • Tris-HCl 50 mM • EDTA 1.5 mM • KCl 300 mM • Adjusted pH to 7.4 (25° C.) • 5. TEDK300 • TEK300 • DTT (dithiothreitol) 10 mM (MW 154.24) • 6. Tris buffer • 22.50 g Tris-HCI • 500 ml H2O • 13.25 g Tris-base • 500 ml H2O • Kept in 4° C. • 7. Dextran-T70 (Mol 70,000) Pharmacia • 8. Charcoal (carbon decolorizing neutral, norit) Fisher Scientific • 9. Gelatin (G-2625 Sigma) (ii) Reagent Preparation: 1. Charcoal Dextran Solution
(1) Tris Buffer • Mixed equal amount of Tris-HCl and Tris-base.
(2) Norit decolorizing neutral charcoal 2.0 g • Tris buffer 150 mL • Stirred
(3) Dextran T-70 0.2 g • Tris buffer 50 ml.
(4) Slowly dripped the suspended dextran into charcoal solution with stirring. • Kept in refrigerator overnight. • Thirty minutes before use, stored on ice with continuous mixing. 2. […]
• Pipetted 100 μL of the upper, aqueous phase to a 24 well scintillation counting plate and added 600 μL scintillation fluid per well, covered and mixed well. Counted the plate using a scintillation counter for 5 min/sample. (iv) Calculations: • The amount of 1,25(OH)2D3 to displace 50 percent [^3H]-1,25(OH)2D3 from VDR was calculated as B50 for 1,25(OH)2D3. The VDR binding of other compounds was calculated as B50 relative to a value of 1 for 1,25(OH)2D3. • Serial Dilution of 1,25(OH)D3

C=C1/C(=C\C=C2/CCC[C@]3(C)C([C@H](C)C/C=C/C(=NOC)C(C)(C)C)=CC[C@@H]23)C[C@@H](O)C[C@@H]1O [(20R)-I(e)]
IC50 [1]: > 3.5 µM
IC50 (VDR): 0.06 µM
